In PMC6838683, “Discovery of Human Signaling Systems: Pairing Peptides to G Protein-Coupled Receptors” (Cell, 2019):
Read-outs that look alike come from different tables or passages of the source. Positions of bridges follow the written chain, without caps; N, C: chain ends. No end group written: not given here.

How the values were obtained:
[1] = target: T1, GPR139 (Homo sapiens, UniProt Q6DWJ6); assay: Repeat of proposed literature pairing (mass redistribution and/or internalization); assay type: cell-based
T1 construct: hIL-2Ra signal peptide (N); expressed in transfected cells
T1 sequence (Q6DWJ6 2-353 limits assumed): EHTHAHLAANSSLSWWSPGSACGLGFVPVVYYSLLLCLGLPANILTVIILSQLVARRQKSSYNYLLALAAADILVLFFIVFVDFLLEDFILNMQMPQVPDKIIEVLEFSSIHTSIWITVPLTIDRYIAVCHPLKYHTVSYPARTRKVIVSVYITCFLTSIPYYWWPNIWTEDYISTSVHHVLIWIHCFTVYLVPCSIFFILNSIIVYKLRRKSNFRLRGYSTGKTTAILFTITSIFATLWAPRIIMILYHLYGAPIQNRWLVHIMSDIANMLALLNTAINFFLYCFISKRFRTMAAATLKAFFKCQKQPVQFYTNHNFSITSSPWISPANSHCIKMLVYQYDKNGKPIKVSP
Excerpt: (§1) DMR assays provide a single integrated readout of ligand-dependent cellular response, utilizing an optical biosensor in specialized microplates to detect wavelength shifts of reflected light as it passes through the biosensor and the lower portion of the cell (∼150-200 nm). As a signal pathway agnostic approach, DMR assays are well-suited to the study of GPCRs ([Fang et al., 2008], [Schröder et al., 2011]). The mass redistribution response (Δ picometer (pm)) likely reflects a number of intracellular events, including cytoskeletal rearrangement, protein trafficking and receptor internalization. Orphan receptor-expressing cells were gently washed twice with assay buffer (HBSS with 1 mM CaCl2, 1 mM MgCl2, 20 mM HEPES, 0.01% pluronic F-68, pH 7.4) containing 0.1% DMSO and cells were equilibrated for 90 min at 22°C in the EPIC Benchtop (BT) System (Corning) to establish a stable DMR signal. After 3-5 min baseline recordings, peptides (10 μM) were added in duplicate wells using an electronic 384-channel Viaflo pipette (Integra Biosciences, Switzerland) and DMR responses were measured for 60 min at 22°C. 100 nM norepinephrine was included as an internal assay control to assess the cellular DMR response via endogenously-expressed adrenoceptors in the TREx 293 cells. Real-time data were processed using the BT to column converter MS-Excel macro (Corning) and analyzed in GraphPad Prism 7.0. DMR recordings in peptide screening experiments were buffer and solvent corrected and the area under the curve (AUC) was quantified. For subsequent validation experiments, peptides were diluted in assay buffer containing 0.1% DMSO and DMR assays were performed as above. […] Data represent mean ± standard error of the mean (SEM) from at least 3 biologically independent experiments.
A TR-FRET real-time internalization assay was used to examine peptide-dependent changes in orphan receptor localization as described previously ([Foster and Bräuner-Osborne, 2018]). Surface-expressed SNAP-tagged receptors were labeled with a cell-impermeable luminescent terbium cryptate (100 nM SNAP Lumi4-Tb; Cisbio, France) for 1 hr at 37°C. Cells were washed to remove excess terbium and incubated with fluorescein-O-acetic acid (100 μM; Sigma Aldrich) for 5 min at 37°C. Peptides were added as for DMR assays, and internalization responses were recorded for 60 min at 37°C using an EnVision 2104 Multimode plate reader (PerkinElmer). 100 nM GLP-1 was used as a positive control for SNAP-GLP1R internalization. Real-time internalization responses were calculated based on TR-FRET (excitation 340 nm; emission 520 nm and 615 nm), and were expressed as the ratio between donor (terbium) and acceptor (fluorescein) emission. For peptide screening analysis (both DMR and internalization assays), we calculated the area under the curve from the real-time traces. […] Validation experiments for receptor internalization were performed as above. Internalization data was processed in MS-Excel and area under the curve was used to generate concentration-response curves using GraphPad Prism 7.0. Data represent mean ± standard error of the mean (SEM) from at least 3 biologically independent experiments.

[2] = target: human GPCRs; set-up: method as in Guide to Pharmacology database; details: max reported value, ref Guide to Pharmacology database, cited from earlier work
Excerpt: Supplement mmc1.xlsx, sheet "HumanGPCRLigands" | column: pKi_value; pKd_value; pEC50_value; pIC50_value

[3] = target: T2, NPFF1 (Homo sapiens, UniProt Q9GZQ6); assay: β-arrestin recruitment (Tango), known peptide receptors; assay type: cell-based; details: mean, n = 3
T2 construct: host or cells: HTLA cells (HEK293-derived)
Excerpt: Supplement mmc7.xlsx, sheet "Peptide validation data" | column: Emax; pEC50

[4] = target: T3, GPR15 (Homo sapiens, UniProt P49685); assay: cAMP inhibition (Gi/o), HTRF with forskolin; assay type: cell-based; details: receptor GPR15, mean, SEM and n (4); for Emax: read-out: cAMP accumulation assays Emax (% FSK); for EC50: read-out: cAMP accumulation assays pEC50 (converted)
T3 construct: hIL-2Ra signal peptide (N); expressed in transfected cells
T3 sequence (P49685 2-360 limits assumed): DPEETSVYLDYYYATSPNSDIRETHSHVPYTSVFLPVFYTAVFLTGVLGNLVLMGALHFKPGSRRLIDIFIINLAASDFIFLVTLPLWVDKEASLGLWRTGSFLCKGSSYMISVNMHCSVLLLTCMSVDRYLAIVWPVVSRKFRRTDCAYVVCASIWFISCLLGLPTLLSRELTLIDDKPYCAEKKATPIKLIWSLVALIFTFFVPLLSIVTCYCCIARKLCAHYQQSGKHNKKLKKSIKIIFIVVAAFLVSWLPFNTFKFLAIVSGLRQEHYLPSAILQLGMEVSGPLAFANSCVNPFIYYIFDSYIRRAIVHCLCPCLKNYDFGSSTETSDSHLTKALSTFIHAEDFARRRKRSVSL
Experimental: Peptide-dependent second messenger responses were measured using commercially available HTRF-based IP1 and cAMP kits (Cisbio) as described previously ([Nørskov-Lauritsen et al., 2014]). Receptor expression was induced for 48 hr with 0.1 μg/ml doxycycline in 10 cm dishes. For IP1 measurements (to measure Gq/11), 2,500 cells/well were mixed with ligands in triplicate wells in low volume white 384-well plates at 37°C for 30 min. For cAMP assays, 2,500 cells/well were added in triplicate wells in white 384-well plates in the absence or presence of 3 μM forskolin (to measure Gs and Gi/o activation respectively). 100 μM IBMX was included to prevent cAMP degradation during 30 min stimulation on a plate shaker at room temperature. For both assays, HTRF was measured using an EnVision 2104 Multimode plate reader (PerkinElmer).

[5] = target: T3, GPR15; assay: Dynamic mass redistribution (DMR), concentration-response; assay type: cell-based; details: receptor GPR15, mean; for DMR assays Emax (peak or AUC): SEM and n (2-3); for EC50: SEM and n (3), read-out: DMR assays pEC50 (converted)
Experimental: (§2) 48 hr prior to parallel assaying, SNAP-tagged oGPCR cells were plated (10,000 cells/well) in fibronectin-coated 384-well Epic biosensor microplates (Corning) and poly-D-lysine coated white 384-well plates (for internalization assays). SNAP- GLP-1 receptor was plated alongside orphan receptor cells as an internal assay control for internalization assays. Receptor-expression was induced with 0.1 μg/ml doxycycline.
as §1

[6] = target: T3, GPR15; assay: Real-time receptor internalization (TR-FRET), concentration-response; assay type: cell-based; details: mean, SEM and n (3); for EC50: read-out: Internalization assays pEC50 (converted)
Experimental: as §2
(§3) A TR-FRET real-time internalization assay was used to examine peptide-dependent changes in orphan receptor localization as described previously ([Foster and Bräuner-Osborne, 2018]). Surface-expressed SNAP-tagged receptors were labeled with a cell-impermeable luminescent terbium cryptate (100 nM SNAP Lumi4-Tb; Cisbio, France) for 1 hr at 37°C. Cells were washed to remove excess terbium and incubated with fluorescein-O-acetic acid (100 μM; Sigma Aldrich) for 5 min at 37°C. Peptides were added as for DMR assays, and internalization responses were recorded for 60 min at 37°C using an EnVision 2104 Multimode plate reader (PerkinElmer). 100 nM GLP-1 was used as a positive control for SNAP-GLP1R internalization. Real-time internalization responses were calculated based on TR-FRET (excitation 340 nm; emission 520 nm and 615 nm), and were expressed as the ratio between donor (terbium) and acceptor (fluorescein) emission. For peptide screening analysis (both DMR and internalization assays), we calculated the area under the curve from the real-time traces. As the magnitude of the responses was variable between orphan receptor targets, particularly for the SNAP-tag based internalization assay where the signal is dependent on receptor surface expression, the AUC values were normalized to their respective plate averages and expressed as fold change. Validation experiments for receptor internalization were performed as above. Internalization data was processed in MS-Excel and area under the curve was used to generate concentration-response curves using GraphPad Prism 7.0. Data represent mean ± standard error of the mean (SEM) from at least 3 biologically independent experiments.

[7] = target: T4, MAS1 (Homo sapiens, UniProt P04201); assay: β-arrestin recruitment (Tango), indicative pairing; assay type: cell-based; details: mean, n = 3
T4 construct: host or cells: HTLA cells (HEK293-derived)
T4 sequence (P04201 1-325): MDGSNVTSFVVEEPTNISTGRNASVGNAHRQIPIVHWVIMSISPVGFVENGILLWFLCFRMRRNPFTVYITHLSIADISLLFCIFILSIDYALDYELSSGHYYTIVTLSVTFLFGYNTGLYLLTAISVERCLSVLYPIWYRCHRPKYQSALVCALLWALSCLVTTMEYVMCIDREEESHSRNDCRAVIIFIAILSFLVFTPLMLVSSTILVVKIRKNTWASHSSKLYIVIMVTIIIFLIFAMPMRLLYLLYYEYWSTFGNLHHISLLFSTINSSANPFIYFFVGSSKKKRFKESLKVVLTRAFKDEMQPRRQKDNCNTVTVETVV
Experimental: The peptide library was additionally screened against 120 GPCR targets in parallel, including all available orphan receptors and 27 known class A peptide receptors using the Tango assay platform ([Kroeze et al., 2015]). Briefly, HTLA cells (a HEK293 cell line stably expressing a tTA-dependent luciferase reporter and a β-arrestin2-TEV fusion gene) were plated 10,000 cells/well in poly-L-lysine–coated clear-bottom white 384-well plates in DMEM supplemented with 10% FBS, 100 U/ml penicillin and 100 μg/ml streptomycin, 2 μg/ml puromycin and 100 μg/ml hygromycin B. 24 hr later, cells were transfected with Tango GPCR constructs using the calcium phosphate method ([Jordan et al., 1996]). The next day, culture medium was changed to DMEM + 1% dFBS and 10 μM peptides were added for overnight stimulation. Bright-Glo solution (Promega) was incubated for 15–20 min at room temperature, and luminescence was counted using a Trilux luminescence counter (Wallac).
For subsequent peptide validation experiments using Tango assays, HTLA cells were transiently transfected in 10 cm dishes with the receptor of interest using polyethylenimine (PEI) ([Longo et al., 2013]). After 24 hr, 25,000 cells/well were plated in clear bottom, white-walled 384-well plates. Assays were performed as described above, with luminescence measured using an EnSpire 2300 Multimode plate reader (PerkinElmer). Luminescence counts were exported into Excel and were analyzed using GraphPad Prism 7.

[8] = test system: GPR37; assay: Repeat of proposed literature pairing (mass redistribution and/or internalization); assay type: cell-based, human; details: repeat of literature pairing; Figure S7A, Tables S5 and S7
Excerpt: as §1, §3

T2 sequence (Q9GZQ6 whole entry): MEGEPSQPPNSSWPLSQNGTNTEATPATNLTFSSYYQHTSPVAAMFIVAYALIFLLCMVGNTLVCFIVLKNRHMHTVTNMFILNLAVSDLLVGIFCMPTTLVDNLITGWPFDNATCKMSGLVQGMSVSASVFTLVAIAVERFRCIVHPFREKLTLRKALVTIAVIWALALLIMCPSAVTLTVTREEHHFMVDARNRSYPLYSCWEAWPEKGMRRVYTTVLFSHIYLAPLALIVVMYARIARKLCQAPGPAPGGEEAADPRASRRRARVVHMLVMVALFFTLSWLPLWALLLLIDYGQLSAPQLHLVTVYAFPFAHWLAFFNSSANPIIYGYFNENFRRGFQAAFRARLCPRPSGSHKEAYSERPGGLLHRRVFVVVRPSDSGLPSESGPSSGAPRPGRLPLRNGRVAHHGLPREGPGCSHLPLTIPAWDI

ACTH (SYSMEHFRWGKPVGKKRRPVKVYPNGAEDESAEAFPLEF; Corticotropin; UniProt P01189 138-176, looked up) [melanocortin receptor ligand, reference compound]
Peptide pairing for orphan receptor GPR139 (confirmed/unconfirmed) ([1]; repeat of literature pairing): Confirmed peptide pairings for orphans
receptor-dependent activation by proposed ligand, GPR139 ([1]; repeat of literature pairing across multiple assays, Figure S7A, Tables S5 and S7): selective receptor-dependent activation
pKi_value ([2]; receptor mc3r_human (MC3R, P41968)): 7.1
pKi_value ([2]; receptor mc4r_human (MC4R, P32245)): 6.2
pKi_value ([2]; receptor mc5r_human (MC5R, P33032)): 5
pKi_value ([2]; receptor mshr_human (MC1R, Q01726)): 8.6

ARANMEAGTMSHFPSLPQRF [Peptide 135]
Emax, Tango (fold over basal) [3]: 22.0 fold over basal
pEC50, Tango (fold over basal) [3]: 6.22

KRRPAKAWS [Peptide 64.1]
cAMP accumulation assays Emax (% FSK) [4]: 98.3 % FSK
DMR assays Emax (peak or AUC) [5]: 107
Internalization assays Emax (AUC) [6]: 3.1

KRRPAKAWSGRRTRLCCHRVPSPNSTNLKGHHVRLCKPCKLEPEPRLWVVPGALPQV (disulfide 16-39, 17-36) [64.4 (Phoenix)]
Emax [4]: 41%
EC50 [4]: 1.26 nM
EC50 [5]: 324 nM
EC50 [6]: 89.1 nM

LWVVPGALPQV [64 original]
cAMP accumulation assays Emax (% FSK) [4]: 29.2 % FSK
DMR assays Emax (peak or AUC) [5]: 197
Internalization assays Emax (AUC) [6]: 45.8

NAWGPWSKEQLSPQAREFWSLAAPQRF [Peptide 166]
Emax, Tango (fold over basal) [7]: 1.2 fold over basal
pEC50, Tango (fold over basal) [7]: 7.14
Emax, Tango (fold over basal) [3]: 26.7 fold over basal
pEC50, Tango (fold over basal) [3]: 4.75

RPYLTQGNEIFPD [Peptide 90]
Emax, Tango (fold over basal) [3]: 9.6 fold over basal
pEC50, Tango (fold over basal) [3]: 4.27

TRLCCHRVPSPNSTNLKGHHVRLCKPCKLEPE (also: bicyclic or more (positions not given here)) [Peptide 64.2]
cAMP accumulation assays Emax (% FSK) [4]: 92.5 % FSK
DMR assays Emax (peak or AUC) [5]: 81
Internalization assays Emax (AUC) [6]: 4.3

TRLCCHRVPSPNSTNLKGHHVRLCKPCKLEPEPRLWVVPGALPQV (disulfide 4-27, 5-24) [64.3 (Phoenix)]
Emax [4]: 40.8%
EC50 [4]: 25.7 nM
EC50 [5]: 13.2 nM
EC50 [6]: 447 nM

head activator
receptor-dependent activation by proposed ligand, GPR37 [8]: no activity
